# Data taken from patent US20230159532A1, “PARATHYROID HORMONE (PTH) RECEPTOR ANTAGONISTS AND USES THEREOF” (Crinetics Pharmaceuticals, Inc., priority 2021, published 2023).
# Target: T1, human PTHR1 receptor (Homo sapiens, UniProt Q03431)
# T1 construct: purchased Eurofins HTS030M
# T1 sequence (Q03431 27-593): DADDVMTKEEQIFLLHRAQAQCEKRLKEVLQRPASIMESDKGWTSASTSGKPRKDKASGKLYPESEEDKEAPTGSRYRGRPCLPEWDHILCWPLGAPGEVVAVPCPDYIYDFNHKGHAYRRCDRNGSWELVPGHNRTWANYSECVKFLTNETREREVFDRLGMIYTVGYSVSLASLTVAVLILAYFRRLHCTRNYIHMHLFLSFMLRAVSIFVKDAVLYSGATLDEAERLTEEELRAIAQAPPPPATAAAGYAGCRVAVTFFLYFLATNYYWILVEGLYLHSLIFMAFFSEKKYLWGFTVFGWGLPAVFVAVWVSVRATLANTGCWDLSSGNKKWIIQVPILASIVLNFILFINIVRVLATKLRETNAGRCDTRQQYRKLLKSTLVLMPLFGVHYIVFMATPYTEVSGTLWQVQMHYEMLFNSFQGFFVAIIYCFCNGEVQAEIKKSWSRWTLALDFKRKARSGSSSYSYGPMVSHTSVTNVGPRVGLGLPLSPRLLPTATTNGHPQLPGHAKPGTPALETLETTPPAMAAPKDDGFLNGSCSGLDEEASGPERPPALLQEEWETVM
# Experiment: Competitive antagonist binding assay for hPTH-R1 (radioactive competition binding, SPA beads)
# Conditions: human PTHR1 membranes, [125I]-[Nle8,18,Tyr34]-PTH(1-34) 0.2 nM, 90 minutes at room temperature; read-out: hPTHR1 Ki
# Method: Competitive Antagonist Binding Assay Protocol for hPTH-R1 Antagonists:
# The inhibition of binding to the human PTHR1 receptor was measured in a radioactive competition binding assay using the radiolabeled [^125I]-[NLE^8,18, TYR^34]-parathyroid hormone (1-34) ligand (PerkinElmer Cat# NEX244, custom synthesis) as the probe ligand for the receptor. Briefly, membranes from cells expressing the human PTHR1 (Eurofins Cat# HTS030M) were incubated with SPA beads (PerkinElmer Cat# RPNQ0001) in binding assay buffer [50 mM HEPES (Biopioneer Cat# C0113), 5 mM MgCl2 (Sigma Cat# M8266), 10 mM CaCl2 (Fisher Scientific Cat# BP510), 0.1% BSA (Fisher Scientific Cat# BP1600), 0.01% TritonX-100 (Bio-Rad Cat#161-0407), and protease inhibitors (Pierce Cat# A32963); pH 7.4]. Membranes bound to SPA bead were treated with various dilutions of compounds (final concentrations typically 0-10,000 nM), and 0.2 nM radiolabeled ligand in 96-well isoplates (PerkinElmer Cat#6005040) for 90 minutes at room temperature. The radioactive signal was detected using a MicroBetaTriLux 1450 LSC (PerkinElmer). All data manipulations to determine the Ki values were performed using GraphPad v8 (GraphPad, San Diego Calif.).
row,Structure (SMILES),Ki [nM]
1,"CCN1C(=O)N(c2c(F)cc(NCCNCCOC)cc2F)c2cc(Cl)ccc2-c2cc(Cl)cnc21 [1-74, 4,13-dichloro-10-[2,6-difluoro-4-({2-[(2-methoxyethyl)amino]ethyl}amino)phenyl]-8-ethyl-6,8,10-triazatricyclo[9.4.0.0^2,7]pentadeca-1(11),2(7),3,5,12,14-hexaen-9-one]",< 100
2,"CCN1C(=O)N(c2c(F)cc(NCCNC)cc2F)c2cccc(C)c2-c2cc(Cl)cnc21 [1-21, 4-chloro-10-(2,6-difluoro-4-{[2-(methylamino)ethyl]amino}phenyl)-8-ethyl-15-methyl-6,8,10-triazatricyclo[9.4.0.0^2,7]pentadeca-1(11),2(7),3,5,12,14-hexaen-9-one]",< 100
3,"CCN1C(=O)N(c2ccc(NCCNC)cc2)c2cc(Cl)ccc2-c2cc(Cl)cnc21 [2-3, 4,13-dichloro-8-ethyl-10-(4-{[2-(methylamino)ethyl]amino}phenyl)-6,8,10-triazatricyclo[9.4.0.0^2,7]pentadeca-1(11),2(7),3,5,12,14-hexaen-9-one]",< 100
4,"CCN1C(=O)N(c2c(F)cc(NCCNCCO)cc2F)c2cc(C#N)cnc2-c2cc(F)cnc21 [3-13, 8-[2,6-difluoro-4-({2-[(2-hydroxyethyl)amino]ethyl}amino)phenyl]-10-ethyl-14-fluoro-9-oxo-3,8,10,12-tetraazatricyclo[9.4.0.0^2,7]pentadeca-1(11),2(7),3,5,12,14-hexaene-5-carbonitrile]",< 100
5,"CCN1C(=O)N(c2c(F)cc(N3CCN[C@@H](CO)C3)cc2F)c2cc(C#N)ccc2-c2cc(Cl)cnc21 [1-153, 4-chloro-10-{2,6-difluoro-4-[(3R)-3-(hydroxymethyl)piperazin-1-yl]phenyl}-8-ethyl-9-oxo-6,8,10-triazatricyclo[9.4.0.0^2,7]pentadeca-1(11),2(7),3,5,12,14-hexaene-13-carbonitrile]",< 100
6,"CCN1C(=O)N(c2c(F)cc(NCCN[C@H]3C[C@@H](O)C3)cc2F)c2cc(C#N)ccc2-c2cc(C(F)(F)F)cnc21 [1-207, 10-{2,6-difluoro-4-[(2-{[(1s,3s)-3-hydroxycyclobutyl]amino}ethyl)amino]phenyl}-8-ethyl-9-oxo-4-(trifluoromethyl)-6,8,10-triazatricyclo[9.4.0.0^2,7]pentadeca-1(11),2(7),3,5,12,14-hexaene-13-carbonitrile]",< 100
7,"CCN1C(=O)N(c2c(F)cc(NCCNCCO)cc2F)c2cc(Cl)c(C)cc2-c2cccnc21 [3-2, 13-chloro-10-[2,6-difluoro-4-({2-[(2-hydroxyethyl)amino]ethyl}amino)phenyl]-8-ethyl-14-methyl-6,8,10-triazatricyclo[9.4.0.0^2,7]pentadeca-1(11),2(7),3,5,12,14-hexaen-9-one]",< 100
8,"CCN1C(=O)N(c2c(F)cc(NCCNCCO)cc2F)c2cc(Cl)cc(Cl)c2-c2cc(F)cnc21 [1-37, 13,15-dichloro-10-[2,6-difluoro-4-({2-[(2-hydroxyethyl)amino]ethyl}amino)phenyl]-8-ethyl-4-fluoro-6,8,10-triazatricyclo[9.4.0.0^2,7]pentadeca-1(11),2(7),3,5,12,14-hexaen-9-one]",< 100
9,"CCN1C(=O)N(c2c(F)cc(NCCNC)cc2F)c2cc(Cl)cc(F)c2-c2cc(Cl)cnc21 [1-61, 4,13-dichloro-10-(2,6-difluoro-4-{[2-(methylamino)ethyl]amino}phenyl)-8-ethyl-15-fluoro-6,8,10-triazatricyclo[9.4.0.0^2,7]pentadeca-1(11),2(7),3,5,12,14-hexaen-9-one]",< 100
10,"CCCN1C(=O)N(c2c(F)cc(NCCNCCO)cc2F)c2cc(C#N)ccc2-c2cc(Cl)cnc21 [1-120, 4-chloro-10-[2,6-difluoro-4-({2-[(2-hydroxyethyl)amino]ethyl}amino)phenyl]-9-oxo-8-propyl-6,8,10-triazatricyclo[9.4.0.0^2,7]pentadeca-1(11),2(7),3,5,12,14-hexaene-13-carbonitrile]",< 100
11,"CCN1C(=O)N(c2c(F)cc(NCCNC[C@H](O)c3ccccc3)cc2F)c2cc(C#N)ccc2-c2cc(Cl)cnc21 [1-230, 4-chloro-10-{2,6-difluoro-4-[(2-{[(2R)-2-hydroxy-2-phenylethyl]amino}ethyl)amino]phenyl}-8-ethyl-9-oxo-6,8,10-triazatricyclo[9.4.0.0^2,7]pentadeca-1(11),2(7),3,5,12,14-hexaene-13-carbonitrile]",< 100
12,"CCN1C(=O)N(c2ccc(NCCNC)cc2F)c2cc(Cl)ccc2-c2cc(Cl)cnc21 [2-8, 4,13-dichloro-8-ethyl-10-(2-fluoro-4-{[2-(methylamino)ethyl]amino}phenyl)-6,8,10-triazatricyclo[9.4.0.0^2,7]pentadeca-1(11),2(7),3,5,12,14-hexaen-9-one]",< 100
13,"CCN1C(=O)N(c2c(F)cc(NCCNC)cc2F)c2cc(C(F)(F)F)ccc2-c2cc(F)cnc21 [1-66, 10-(2,6-difluoro-4-{[2-(methylamino)ethyl]amino}phenyl)-8-ethyl-4-fluoro-13-(trifluoromethyl)-6,8,10-triazatricyclo[9.4.0.0^2,7]pentadeca-1(11),2(7),3,5,12,14-hexaen-9-one]",< 100
14,"CCOC(=O)CCCNc1cc(F)c(N2C(=O)N(CC)c3ncc(Cl)cc3-c3ccc(Cl)cc32)c(F)c1 [1-53, ethyl 4-[(4-{4,13-dichloro-8-ethyl-9-oxo-6,8,10-triazatricyclo[9.4.0.0^2,7]pentadeca-1(11),2(7),3,5,12,14-hexaen-10-yl}-3,5-difluorophenyl)amino]butanoate]",1000 to 10000
15,"CCN1C(=O)N(c2c(F)cc(NCCNCCCS(=O)(=O)O)cc2F)c2cc(C#N)ccc2-c2cc(Cl)cnc21 [1-175, 3-({2-[(4-{4-chloro-13-cyano-8-ethyl-9-oxo-6,8,10-triazatricyclo[9.4.0.0^2,7]pentadeca-1(11),2(7),3,5,12,14-hexaen-10-yl}-3,5-difluorophenyl)amino]ethyl}amino)propane-1-sulfonic acid]",< 100
16,"CCN1C(=O)N(c2c(F)cc(NCCNCCO)cc2F)c2cc(C)ccc2-c2cc(F)cnc21 [1-226, 10-[2,6-difluoro-4-({2-[(2-hydroxyethyl)amino]ethyl}amino)phenyl]-8-ethyl-4-fluoro-13-methyl-6,8,10-triazatricyclo[9.4.0.0^2,7]pentadeca-1(11),2(7),3,5,12,14-hexaen-9-one]",< 100
17,"CN1C(=O)N(c2c(F)cc(NCCNCCCC(=O)O)cc2F)c2cc(C#N)ccc2-c2cc(Cl)cnc21 [1-201, 4-({2-[(4-{4-chloro-13-cyano-8-methyl-9-oxo-6,8,10-triazatricyclo[9.4.0.0^2,7]pentadeca-1(11),2(7),3,5,12,14-hexaen-10-yl}-3,5-difluorophenyl)amino]ethyl}amino)butanoic acid]",< 100
18,"CC(C)N1C(=O)N(c2c(F)cc(N3CC[C@@H](N)C3)cc2F)c2cc(C#N)cc(F)c2-c2cc(F)cnc21 [1-212, 10-{4-[(3R)-3-aminopyrrolidin-1-yl]-2,6-difluorophenyl}-4,15-difluoro-9-oxo-8-(propan-2-yl)-6,8,10-triazatricyclo[9.4.0.0^2,7]pentadeca-1(15),2(7),3,5,11,13-hexaene-13-carbonitrile]",< 100
19,"CCN1C(=O)N(c2c(F)cc(N3CC(N)C3)cc2F)c2cc(Cl)ccc2-c2cc(Cl)cnc21 [1-44, 10-[4-(3-aminoazetidin-1-yl)-2,6-difluorophenyl]-4,13-dichloro-8-ethyl-6,8,10-triazatricyclo[9.4.0.0^2,7]pentadeca-1(11),2(7),3,5,12,14-hexaen-9-one]",< 100
20,"CCN1C(=O)N(c2c(F)cc(NCCNCC(=O)O)cc2F)c2cc(C#N)ccc2-c2cc(Cl)cnc21 [1-215, 2-({2-[(4-{4-chloro-13-cyano-8-ethyl-9-oxo-6,8,10-triazatricyclo[9.4.0.0^2,7]pentadeca-1(11),2(7),3,5,12,14-hexaen-10-yl}-3,5-difluorophenyl)amino]ethyl}amino)acetic acid]",< 100
21,"CCN1C(=O)N(c2ccc(NCCNC3CCOCC3)cc2)c2cc(Cl)ccc2-c2cc(Cl)cnc21 [2-13, 4,13-dichloro-8-ethyl-10-[4-({2-[(oxan-4-yl)amino]ethyl}amino)phenyl]-6,8,10-triazatricyclo[9.4.0.0^2,7]pentadeca-1(11),2(7),3,5,12,14-hexaen-9-one]",< 100
